The record followed here is patent US10239835B2, “N-alkylaryl-5-oxyaryl-octahydro-cyclopenta[c]pyrrole negative allosteric modulators of NR2B” (Luc Therapeutics, Inc., priority 2014, dated 2019).

Where only a bound is given, the exact number is not on record here.

Assay [1] has as its target HEK293 cells expressing NR1/NR2B (Homo sapiens (Human), UniProt Q05586+Q13224). The experiment in a line: NR2B NAM Assay (FDSS Ca2+ influx cell assay). It counts as cell-based. As to conditions: NR2B NAM assay, class of inhibitory concentration; read-out: Activity Category. On the procedure:
(§1) Cell Culture and plating: HEK293 cells expressing NR1/NR2B (Chantest, Cleveland, Ohio) were grown to 70-80% confluency as an adherent monolayer in standard tissue culture flasks at 37° C., 5% CO2 per supplier's instructions. NR2B expression was induced by incubation with 0.3-0.4 μg/ml tetracycline in the presence of 4 mM ARL-15896 for 18-24 hours under the same growth conditions, then transferred to 30° C. for another 3-5 hours.
(§2) After induction, cell culture medium was removed and cells were rinsed once with Ca^2+ and Mg^2+-free Dulbecco's phosphate buffered saline. Cells were then removed from the flask using TrypLE™ Express (Life Technologies) according to the manufacturer's instructions and collected to 50 ml centrifuge tubes. Following two washes in Ca^2+/Mg^2+-free HBSS with 20 mM HEPES (HHnoCa), cells were counted and viability assessed using trypan blue. To load cells with Ca^2+-sensitive dye, they were resuspended in fluo-8 plus Component B (AAT Bioquest Products) diluted in HHnoCa and incubated 15 minutes at 37° C., followed by 30 minutes at room temp (in dark). Cells were then washed and resuspended in HHnoCa to remove extracellular dye and plated in 384-well plates (Falcon, uncoated) at 20,000-30,000 cells/well in a final volume of 25 μl/well.
(§3) FDSS Assay: To each well of the plate, 10 μL test compound, control (MK801) or HHnoCa buffer was added at different concentrations to yield final concentrations of 0.001, 0.003, 0.010, 0.030, 0.100, 0.300, 1.000, 3.000, 10.000, or 30.000 uM final concentration of DMSO of 0.1%. Following 10 minutes pre-incubation in the dark, plates are loaded onto the Hamamatsu FDSS 6000. After collecting baseline fluorescence images, 3 μM glutamate, 3 μM glycine, and 1 mM Ca^2+ in HHnoCa buffer is added to each well, and Ca^2+ is recorded for 3 minutes. Data were processed by computing ratio of fluorescence at the end of data collection to baseline fluorescence to assess degree of Ca^2+ influx inhibition relative to that observed in MK801.
(§4) Table 8 below provides activity of each compound according to the legend that “++++” indicates inhibition at a concentration<100 nM; “+++” indicates inhibition at a concentration between 100 nM and 1 μM of the disclosed compound; “++” indicates inhibition at a concentration of from 1 μM to 10 μM; and “+” indicates inhibition at a concentration>10 μM.

The target of assay [2] is HEK293 cells expressing NR1/NR2B (Homo sapiens (Human), UniProt Q13224). As to the kind of experiment: NR2B NAM Assay (FDSS Ca2+ influx cell assay). It counts as cell-based. The note with it: Ca2+ influx inhibition relative to MK801; 3 μM glutamate, 3 μM glycine, 1 mM Ca2+; read-out: NR2B NAM IC50. On the procedure: as §1, §2, §3, §4
Sequence of HEK293 cells expressing NR1/NR2B (Homo sapiens (Human), UniProt Q13224) (Q13224 27-1484, other chains not shown): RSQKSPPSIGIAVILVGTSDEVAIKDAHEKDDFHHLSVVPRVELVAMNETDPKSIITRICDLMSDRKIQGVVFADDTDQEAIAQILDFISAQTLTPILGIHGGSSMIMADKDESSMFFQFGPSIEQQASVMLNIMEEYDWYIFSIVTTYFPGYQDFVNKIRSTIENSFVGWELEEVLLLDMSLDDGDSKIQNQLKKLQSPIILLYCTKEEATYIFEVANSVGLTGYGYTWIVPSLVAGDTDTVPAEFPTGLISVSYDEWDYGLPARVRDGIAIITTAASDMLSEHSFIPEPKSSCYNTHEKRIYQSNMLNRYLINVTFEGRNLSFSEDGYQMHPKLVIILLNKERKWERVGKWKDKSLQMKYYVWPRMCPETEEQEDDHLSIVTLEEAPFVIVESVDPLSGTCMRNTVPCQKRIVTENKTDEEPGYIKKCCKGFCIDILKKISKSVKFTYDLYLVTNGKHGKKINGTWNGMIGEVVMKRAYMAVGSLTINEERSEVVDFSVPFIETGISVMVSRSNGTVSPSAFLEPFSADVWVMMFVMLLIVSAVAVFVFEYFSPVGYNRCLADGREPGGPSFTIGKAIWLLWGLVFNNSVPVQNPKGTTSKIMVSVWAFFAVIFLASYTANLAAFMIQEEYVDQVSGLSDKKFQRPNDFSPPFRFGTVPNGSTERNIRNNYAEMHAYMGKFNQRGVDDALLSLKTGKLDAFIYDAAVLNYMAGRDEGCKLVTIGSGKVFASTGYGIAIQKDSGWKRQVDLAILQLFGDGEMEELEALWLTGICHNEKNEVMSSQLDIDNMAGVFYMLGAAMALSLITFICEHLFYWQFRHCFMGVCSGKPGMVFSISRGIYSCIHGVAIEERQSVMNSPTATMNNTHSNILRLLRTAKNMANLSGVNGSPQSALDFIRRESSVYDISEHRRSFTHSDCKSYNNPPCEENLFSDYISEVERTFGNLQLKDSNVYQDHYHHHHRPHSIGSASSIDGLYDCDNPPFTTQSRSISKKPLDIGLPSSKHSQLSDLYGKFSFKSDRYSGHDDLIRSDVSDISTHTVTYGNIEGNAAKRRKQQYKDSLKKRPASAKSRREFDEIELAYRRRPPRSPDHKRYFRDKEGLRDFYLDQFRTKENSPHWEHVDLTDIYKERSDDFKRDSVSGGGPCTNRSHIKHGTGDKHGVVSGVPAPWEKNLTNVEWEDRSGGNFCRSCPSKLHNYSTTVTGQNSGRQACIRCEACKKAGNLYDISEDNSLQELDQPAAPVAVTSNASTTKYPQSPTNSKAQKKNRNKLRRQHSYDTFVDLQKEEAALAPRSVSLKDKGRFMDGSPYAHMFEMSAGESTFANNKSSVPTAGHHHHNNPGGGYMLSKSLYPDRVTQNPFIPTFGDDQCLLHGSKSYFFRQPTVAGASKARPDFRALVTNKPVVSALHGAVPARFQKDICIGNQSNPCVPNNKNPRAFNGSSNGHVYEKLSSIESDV

Sequence of HEK293 cells expressing NR1/NR2B (Homo sapiens (Human), UniProt Q05586+Q13224) (Q13224 27-1484, other chains not shown): as above

As to `O=C(CN1C[C@H]2C[C@H](Oc3ccc(F)cc3)C[C@H]2C1)c1ccc(O)cc1`, the IC50 in assay [1] is below 100 nM; in assay [2], 47 nM.
`O=C(CN1C[C@H]2C[C@H](Oc3cncc(Cl)c3)C[C@H]2C1)c1ccc(O)cc1`: the IC50 is 100 to 1000 nM in assay [1] and 253 nM in assay [2].
For the molecule `Oc1ccc(C(O)CN2C[C@H]3C[C@H](Oc4cncc(Cl)c4)C[C@H]3C2)cc1` (stereo partly shown), the results for the IC50 in assay [1] and in assay [2] were 100 to 1000 nM and 493 nM, respectively.
Taken in the same sequence, the figures for `O=C(CN1C[C@H]2C[C@H](Oc3ccc(F)cc3)C[C@H]2C1)c1cnn(Cc2ccccc2)c1` were above 10000 nM and 10000 nM.
Taken in the same sequence, the figures for `OC(CN1C[C@H]2C[C@H](Oc3ccc(F)cc3)C[C@H]2C1)c1cnn(Cc2ccccc2)c1` (stereo partly shown) were above 10000 nM and 10000 nM.
Consider `O=C(CN1C[C@H]2C[C@@H](Oc3ccc(F)cc3)C[C@H]2C1)c1ccc(O)cc1`, for which the figures for the IC50 in assay [1] and in assay [2] were below 100 nM and 53.4 nM, respectively.
For the molecule `Oc1ccc(C(O)CN2C[C@H]3C[C@H](Oc4cccnc4)C[C@H]3C2)cc1` (stereo partly shown), the IC50 in assay [1] is below 100 nM; in assay [2], 94.6 nM.
In the same order, the values of `O=C(CN1C[C@H]2C[C@H](Oc3ccc(F)cc3)C[C@H]2C1)c1ccc(O)c(F)n1` are above 10000 nM and 10000 nM.
Consider `Cc1ccc(O[C@H]2C[C@@H]3CN(CC(=O)c4ccc(O)cc4)C[C@@H]3C2)cn1`, for which the figures for the IC50 in assay [1] and in assay [2] were below 100 nM and 84.5 nM, respectively.
Taken in the same sequence, the figures for `N#Cc1ccc(O[C@H]2C[C@@H]3CN(CC(=O)c4ccc(O)cn4)C[C@@H]3C2)cc1` were above 10000 nM and 10000 nM.
Taken in the same sequence, the figures for `N#Cc1ccc(O[C@H]2C[C@@H]3CN(CC(O)c4ccc(O)cn4)C[C@@H]3C2)cc1` (stereo partly shown) were below 100 nM and 18 nM.
In the same order, the values of `N#Cc1ccc(O[C@H]2C[C@@H]3CN(CC(O)c4ccc(O)c(F)n4)C[C@@H]3C2)cc1` (stereo partly shown) are 100 to 1000 nM and 367 nM.
On to `O=C(CN1C[C@H]2C[C@H](Oc3cccnc3)C[C@H]2C1)c1ccc(O)c(F)c1`, for which the IC50 in assay [1] was 100 to 1000 nM; in assay [2], 434 nM.
Take `COc1ccc(O[C@H]2C[C@@H]3CN(CC(=O)c4ccc(O)cn4)C[C@@H]3C2)cc1`: the IC50 was above 10000 nM in assay [1] and 10000 nM in assay [2].
In the same order, the values of `COc1ccc(O[C@H]2C[C@@H]3CN(CC(=O)c4ccc(O)cc4)C[C@@H]3C2)cc1` are below 100 nM and 46.4 nM.
Taken in the same sequence, the figures for `COc1ccc(O[C@H]2C[C@@H]3CN(CC(=O)c4ccc(O)c(F)c4)C[C@@H]3C2)cc1` were 100 to 1000 nM and 102 nM.
With `N#Cc1ccc(O[C@H]2C[C@@H]3CN(CC(=O)c4ccc(O)c(F)n4)C[C@@H]3C2)cc1`, the IC50 in assay [1] was above 10000 nM; in assay [2], 10000 nM.
In the same order, the values of `N#Cc1ccc(O[C@H]2C[C@@H]3CN(CC(=O)c4ccc(O)cc4)C[C@@H]3C2)cc1` are below 100 nM and 68.2 nM.
As for `N#Cc1ccc(O[C@H]2C[C@@H]3CN(CC(O)c4ccc(O)cc4)C[C@@H]3C2)cc1` (stereo partly shown), the IC50 in assay [1] was below 100 nM; in assay [2], 47.4 nM.
In the same order, the values of `Oc1ccc(C(O)CN2C[C@H]3C[C@H](Oc4cncc(F)c4)C[C@H]3C2)cc1` (stereo partly shown) are 100 to 1000 nM and 267 nM.
Taken in the same sequence, the figures for `Oc1ccc(C(O)CN2C[C@H]3C[C@H](Oc4cccnc4)C[C@H]3C2)cc1F` (stereo partly shown) were below 100 nM and 52.1 nM.
In the same order, the values of `COc1cccc(O[C@H]2C[C@@H]3CN(CC(=O)c4ccc(O)cn4)C[C@@H]3C2)c1` are above 10000 nM and 10000 nM.
Consider `Cc1ccc(O[C@H]2C[C@@H]3CN(CC(O)c4ccc(O)cc4)C[C@@H]3C2)cn1` (stereo partly shown), for which the IC50 is 100 to 1000 nM in assay [1] and 140 nM in assay [2].
Taken in the same sequence, the figures for `COc1ccc(O[C@H]2C[C@@H]3CN(CC(=O)c4ccc(O)c(OC)n4)C[C@@H]3C2)cc1` were above 10000 nM and 10000 nM.
With `COc1ccc(O[C@H]2C[C@@H]3CN(CC(O)c4ccc(O)c(OC)n4)C[C@@H]3C2)cc1` (stereo partly shown), the IC50 in assay [1] was 1000 to 10000 nM; in assay [2], 1330 nM.
Regarding `COc1ccc(O[C@H]2C[C@@H]3CN(CC(O)c4ccc(O)cn4)C[C@@H]3C2)cc1` (stereo partly shown), the values for the IC50 in assay [1] and in assay [2] were below 100 nM and 65.8 nM, respectively.
Taken in the same sequence, the figures for `COc1ccc(O[C@H]2C[C@@H]3CN(CC(O)c4ccc(O)c(F)c4)C[C@@H]3C2)cc1` (stereo partly shown) were below 100 nM and 41.5 nM.
For the molecule `COc1ccc(O[C@H]2C[C@@H]3CN(CC(O)c4ccc(O)cc4)C[C@@H]3C2)cc1` (stereo partly shown), the IC50 was below 100 nM in assay [1] and 51.6 nM in assay [2].
Taken in the same sequence, the figures for `COc1cccc(O[C@H]2C[C@@H]3CN(CC(O)c4ccc(O)cn4)C[C@@H]3C2)c1` (stereo partly shown) were below 100 nM and 70.7 nM.
With `Oc1ccc(C(O)CN2C[C@H]3C[C@H](Oc4ccc(F)cc4)C[C@H]3C2)nc1F` (stereo partly shown), the IC50 is below 100 nM in assay [1] and 30.2 nM in assay [2].
`Cc1ccc(O[C@H]2C[C@@H]3CN(CC(=O)c4ccc(O)cc4)C[C@@H]3C2)c(F)c1`: the results for the IC50 in assay [1] and in assay [2] were 100 to 1000 nM and 210 nM, respectively.
Regarding `Cc1ccc(O[C@H]2C[C@@H]3CN(CC(O)c4ccc(O)cn4)C[C@@H]3C2)c(F)n1` (stereo partly shown), the results for the IC50 in assay [1] and in assay [2] were below 100 nM and 60.2 nM, respectively.
Taken in the same sequence, the figures for `Oc1ccc(C(O)CN2C[C@H]3C[C@H](Oc4ccccc4Cl)C[C@H]3C2)nc1` (stereo partly shown) were below 100 nM and 38 nM.
Taken in the same sequence, the figures for `O=C(CN1C[C@H]2C[C@H](Sc3ccccc3)C[C@H]2C1)c1ccc(O)cc1` were below 100 nM and 26.7 nM.
Take `Oc1ccc(C(O)CN2C[C@H]3C[C@H](Sc4ccccc4)C[C@H]3C2)cc1` (stereo partly shown): the results for the IC50 in assay [1] and in assay [2] were below 100 nM and 9.36 nM, respectively.
In the case of `O=C(CN1C[C@H]2CC(S(=O)(=O)c3ccccc3)C[C@H]2C1)c1ccc(O)cc1` (stereo partly shown), the IC50 in assay [1] is 1000 to 10000 nM; in assay [2], 3500 nM.
Taken in the same sequence, the figures for `O=S(=O)(c1ccccc1)[C@H]1C[C@@H]2CN(CC(O)c3ccc(O)cc3)C[C@@H]2C1` (stereo partly shown) were 1000 to 10000 nM and 4370 nM.
In the same order, the values of `O=C(CN1C[C@H]2C[C@H](S(=O)(=O)c3ccccc3)C[C@H]2C1)c1ccc(O)c(F)c1` are above 10000 nM and 10000 nM.
Regarding `O=S(=O)(c1ccccc1)[C@H]1C[C@@H]2CN(CC(O)c3ccc(O)c(F)c3)C[C@@H]2C1` (stereo partly shown), the figures for the IC50 in assay [1] and in assay [2] were above 10000 nM and 10000 nM, respectively.
As to `COc1ccc(S[C@H]2C[C@@H]3CN(CC(=O)c4ccc(O)cc4)C[C@@H]3C2)cc1`, the IC50 in assay [1] was 100 to 1000 nM; in assay [2], 230 nM.
Regarding `O=C(CN1C[C@H]2C[C@H](Sc3ccc(F)cc3)C[C@H]2C1)c1ccc(O)cc1`, the IC50 in assay [1] was below 100 nM; in assay [2], 74 nM.
In the same order, the values of `Oc1ccc(C(O)CN2C[C@H]3C[C@H](Sc4ccc(F)cc4)C[C@H]3C2)cc1` (stereo partly shown) are below 100 nM and 19.2 nM.
Taken in the same sequence, the figures for `COc1ccc(S[C@H]2C[C@@H]3CN(CC(O)c4ccc(O)cc4)C[C@@H]3C2)cc1` (stereo partly shown) were 100 to 1000 nM and 113 nM.
Taken in the same sequence, the figures for `Oc1ccc(C(O)CN2C[C@H]3C[C@H](Sc4ccccc4F)C[C@H]3C2)nc1` (stereo partly shown) were below 100 nM and 20.6 nM.
In the case of `Oc1ccc([C@@H](O)CN2C[C@H]3C[C@H](Oc4ccccc4)C[C@H]3C2)nc1`, the IC50 in assay [1] was below 100 nM; in assay [2], 5.25 nM.
As to `Oc1ccc([C@H](O)CN2C[C@H]3C[C@H](Oc4ccccc4)C[C@H]3C2)nc1`, the values for the IC50 in assay [1] and in assay [2] were below 100 nM and 5.24 nM, respectively.
For the molecule `Oc1ccc([C@@H](O)CN2C[C@H]3C[C@H](Oc4cccnc4F)C[C@H]3C2)nc1`, the IC50 is below 100 nM in assay [1] and 20 nM in assay [2].
